# Measured values: patent publication US20160256452A1 (Develco Pharma Schweiz AG, priority 2015, published 2016)
# Where a name gives a salt, the structure may show the parent alone.
# Key:
# [1] = test system: loperamide-induced experimental constipation; test: Oro-cecal transit time (OCT), sulfasalazine/sulfapyridine method, loperamide-induced experimental constipation; type: in vivo, human
# Method: (§1) The clinical study was performed in 15 German white subjects (11 males, 4 females, age 20-34 years, body mass index 20.3-27.0 kg/ m^2). All subjects were in good health as confirmed by medical histories, physical examination, routine clinical-chemical and hematologic screenings and 12-lead ECG. Three female subjects took hormonal contraceptives regularly and one subject took 300 mg ibuprofen to treat headache 4 days before the administration of study medication. Three subjects were smokers of less than 10 cigarettes per day. 14 subjects drank alcohol occasionally. All were negative in the pre-study screenings for alcohol, drugs, hepatitis-B-virus (HBV) and hepatitis-C-virus (HCV) and human immunodeficiency virus (HIV). Before administration of the study medication, female subjects were screened to be not pregnant and to apply a safe method of contraception. […] All participants provided informed written consent before inclusion into the study. The study was approved by the Independent Ethics Committee of the University Medicine Greifswald and by the German Federal Institute for Drugs and Medical Devices (BfArM) and was registered by EudraCT (2009-014357-32) and ClinicalTrials.gov (NCT01596777).
# (§2) Pharmacokinetics of methylnaltrexone and its effects on loperamid-induced experimental constipation were evaluated in a randomized, controlled, five-period, cross-over study with 7 days wash-out between the study periods. […] The time of methylnaltrexone administration was defined to be time zero. For control of intestinal transit times in absence of loperamide and methylnaltrexone, 200 ml of pure apple juice and a methylnaltrexone placebo capsule were given at the respective times (Control). […] Oro-cecal transit time (OCT) was assessed using the sulfasalazine/sulfapyridine method. For that, 500 mg immediate-release sulfasalazine (Azulfidine®, Pharmacia, Germany) were swallowed with 200 ml table water 2 h after administration of the respective methylnaltrexone study medication to avoid competitive interactions during absorption. The time of first appearance of sulfapyridine in serum was defined to be the OCT (cut-off: 100 μg/ml serum). Whole gut transit time (WGT) was evaluated using a radio-opaque marker method. For that, Colon Transit' capsules (Medical Instruments Corporation GmbH, Herford, Germany) were swallowed 24, 12 and 1 h before time zero using the 200 ml apple juice for loperamide dosing. Each capsule contains 10 radio-opaque markers of identical shape (e.g. triangles). A Colon Transit™ batch consists of capsules with markers of different shape (e.g. triangles, circles, rings etc.). Our subjects were willing and compliant for sampling stool in single portions immediately after feeling urge without suppressing defecation using tightly closable containers. Then, the number of radio-opaque markers with identical shape was counted in the stool portions after X-ray imaging (Philips Optimus, Philips Healthcare, Hamburg, Germany) using the Agfa PACS Workstation Impact-Version 5.2 (Agfa-Healthcare, Cologne, Germany). From the time of administration of the 3×10 radio-opaque markers (3 Colon Transit™ capsules) and the time of their appearance in different stool portions could be reliably concluded on WGT as described below. Colon transit time (CTT) was derived from the difference of WGT and OCT.
# For supervised pretreatment with loperamide and Colon Transit™ (mouth checking) and for providing stool samples, the subjects visited the study unit. […]
# [2] = test system: loperamide-induced experimental constipation; test: Whole gut transit time (WGT), radio-opaque marker method, loperamide-induced experimental constipation; type: in vivo, human
# Method: as §1, with “All” for “The clinical study was performed in 15 German white subjects (11 males, 4 females, age 20-34 years, body mass index 20.3-27.0 kg/ m^2). All”, “study.” for “study. The study was approved by the Independent Ethics Committee of the University Medicine Greifswald and by the German Federal Institute for Drugs and Medical Devices (BfArM) and was registered by EudraCT (2009-014357-32) and ClinicalTrials.gov (NCT01596777).”
# as §2, with “Our subjects were willing and compliant for sampling stool in single portions immediately after feeling urge without suppressing defecation using tightly closable containers.” left out
# Intestinal transit times: Oro-cecal transit time (OCT) was defined as the time span between oral administration of sulfasalazine (500 mg immediate-release tablet) and the appearance of its metabolite sulfapyridine in serum (cut-off=100 μg/ml) which is generated in the cecum by bacterial azo-reduction. Whole-gut transit time (WGT) was assessed by counting the radio-opaque markers with different shapes (Colon Transit™) in the feces according to formula (1) : […]
# with δ1-3 as derived by formula (2):
# [formula] • δt =mouth to stool transit time of markers type 1, 2, 3 • xi=number of markers type 1, 2, 3 counted at time ti • n=total number of stools
# [3] = test system: loperamide-induced experimental constipation; test: Colon transit time (CTT), difference of WGT and OCT, loperamide-induced experimental constipation; type: in vivo, human; details: for colon transit time after pre-treatment with loperamide: all 15 subjects
# Method: as §2
# The CTT was evaluated from the difference of WGT and OCT.
# [4] = cited from earlier work
# [5] = 12 LOP-responders, Control versus LOP
# [6] = 12 LOP-responders, Control versus LOP, range
# [7] = mean ± SD, 12 LOP-responders, loperamide 4 mg 24, 12, 1 h before and 12 h after placebo capsules
compound,measurement,setting,value
"CN(C)C(=O)C(CCN1CCC(O)(c2ccc(Cl)cc2)CC1)(c1ccccc1)c1ccccc1 [LOP, loperamide hydrochloride]",prolongation of the OCT (mean ± SD),[1]; [5],3.08 ± 3.30 h
same,prolongation of the OCT (range),[1]; [6],0.50 to 10.5 h
same,OCT after pre-treatment with loperamide (mean ± SD),[1]; all 15 subjects,7.4 ± 3.7 h
same,OCT after pre-treatment with loperamide (range),"[1]; all 15 subjects, range",4.0 to 14.0 h
same,OCT,[1]; [7],7.00 ± 3.55 h
same,WGT extended by (mean ± SD),[2]; [5],37.8 ± 19.1 h
same,WGT extended by (range),[2]; [6],20.6 to 74.1 h
same,WGT after pre-treatment with loperamide (mean ± SD),[2]; all 15 subjects,73.4 ± 19.9 h
same,WGT elevation versus Control,[2]; all 15 subjects,about 1.8 fold
same,WGT after pre-treatment with loperamide (range),"[2]; all 15 subjects, range",45.9 to 114 h
same,WGT,[2]; [7],77.3 ± 19.6 h
same,prolongation of the CTT (mean ± SD),[3]; [5],34.8 ± 18.3 h
same,prolongation of the CTT (range),[3]; [6],18.3 to 73.6 h
same,colon transit time after pre-treatment with loperamide,[3],66.0 ± 20.9 h
same,colon transit time after pre-treatment with loperamide,[3]; range,33.9 to 110 h
same,CTT,[3]; [7],70.3 ± 19.4 h
"C[N@+]1(CC2CC2)CC[C@]23c4c5ccc(O)c4O[C@H]2C(=O)CC[C@@]3(O)[C@H]1C5 [methylnaltrexone, N-methylnaltrexone bromide]",time of peak concentrations,[4]; following subcutaneous administration,approximately 0.5 hours
same,crossing of the human blood-brain barrier,[4]; in vivo,does not cross
same,eliminated without being metabolised,[4]; in vivo,85 % of the administered dose
same,proportion that binds to plasma proteins,[4]; in vivo,11-15%
same,steady-state volume of distribution,[4]; in vivo,1.1 L/kg
same,terminal half-life,[4]; in vivo,about 8 hours
same,Accumulation,[4]; intravenous administration every 6 hours,has not been observed
same,excreted in urine,[4]; share of the dose,Approximately half of the dose
